Data taken from US6734139B1, “N-aryl-uracile-based herbicides” (priority 1999, dated 2004).
Where “and” joins values, the source holds several entries; their conditions need not be identical. Equal values may be shown once.

Assays:
Assay type in all cases: in vivo
maize = assay: Pre-emergence test in maize (crop plant compatibility); conditions: for Average damage (%): maize, pre-emergence, 0.1% Renex-36
Experimental: (§1) Solvent: 2 to 3 parts by weight of acetone or N,N-dimethyl-formamide
(§2) Emulsifier: 1 part by weight of alkylaryl polyglycol ether
(§3) To produce a suitable preparation of active compound, 1 part by weight of active compound is mixed with the stated amount of solvent, the stated amount of emulsifier is added and the concentrate is diluted with water to the desired concentration. Formulated products are dissolved in water and then diluted with water to the desired concentration.
(§4) The solutions of the other mixing components (active compounds or safeners) are prepared analogously. The separately prepared solutions of the various mixing components are then combined and, if appropriate, additional substances (formulation auxiliaries, additives, etc.) are added and, if appropriate, water is added to prepare the desired dilution.
(§5) Seeds of the test plants are sown in standard soil. After 24 hours, the soil is sprayed with the preparation of active compound such that the particular amount of active compound desired in each case is applied per unit area. The concentration of active compound in the spray liquor is chosen such that the particular amount of active compound desired in each case is applied in 500 litres of water per hectare. The containers with the test plants are kept in a greenhouse at controlled temperature and controlled illumination until evaluation.
(§6) 0%=no effect/no damage (like untreated control)

Veronica = assay: Post-emergence test (herbicidal action, Colby): Veronica
Source text: (§7) The expected action for a given combination of two herbicides can be calculated as follows (cf. COLBY, S. R.: “Calculating synergistic and antagonistic responses of herbicide combinations”, Weeds 15, Pages 20-22, 1967):
(§8) If the actual damage exceeds the calculated value, the combination has a superadditive effect, that is to say a synergistic effect.
as §3, §4
(§9) After three weeks, the degree of damage to the plants is rated in % damage in comparison to the development of the untreated control. The figures denote
as §6

Solanum = assay: Post-emergence test (herbicidal action, Colby): Solanum
Source text: as §7, §8, §3, §4, §9, §6

weeds = assay: Pre-emergence test (herbicidal action against weeds, Colby)
Source text: as §7, §8
The theoretically expected activity for a given combination of three herbicides can likewise be found in the literature mentioned above.
as §1, §2, §3, §4, §5, §9, §6

Datura [1] = assay: Post-emergence test (herbicidal action, Colby): Datura
Abutilon [2] = assay: Post-emergence test (herbicidal action, Colby): Abutilon; conditions: 4 g of a.i./ha
Chenopodium [3] = assay: Post-emergence test (herbicidal action, Colby): Chenopodium; conditions: 4 g of a.i./ha
Matricaria [4] = assay: Post-emergence test (herbicidal action, Colby): Matricaria; conditions: 4 g of a.i./ha
Polygonum [5] = assay: Post-emergence test (herbicidal action, Colby): Polygonum; conditions: 8 g of a.i./ha
Alopecurus = assay: Pre-emergence test (herbicidal action, Colby): Alopecurus
Cyperus = assay: Pre-emergence test (herbicidal action, Colby): Cyperus
Digitaria = assay: Pre-emergence test (herbicidal action, Colby): Digitaria
Echinochloa = assay: Pre-emergence test (herbicidal action, Colby): Echinochloa
Setaria = assay: Pre-emergence test (herbicidal action, Colby): Setaria
Abutilon [6] = assay: Pre-emergence test (herbicidal action, Colby): Abutilon
Matricaria [7] = assay: Pre-emergence test (herbicidal action, Colby): Matricaria
Polygonum [8] = assay: Pre-emergence test (herbicidal action, Colby): Polygonum
Stellaria = assay: Pre-emergence test (herbicidal action, Colby): Stellaria; conditions: 4 g of a.i./ha
Ipomoea = assay: Pre-emergence test (herbicidal action, Colby): Ipomoea
Viola = assay: Pre-emergence test (herbicidal action, Colby): Viola; conditions: 8 g of a.i./ha
Datura [9] = assay: Pre-emergence test (herbicidal action, Colby): Datura; conditions: 4 g of a.i./ha
Chenopodium [10] = assay: Pre-emergence test (herbicidal action, Colby): Chenopodium; conditions: 4 g of a.i./ha
Eriochloa = assay: Pre-emergence test (herbicidal action, Colby): Eriochloa
Cassia = assay: Pre-emergence test (herbicidal action, Colby): Cassia; conditions: 4 g of a.i./ha
Bromus = assay: Pre-emergence test (herbicidal action, Colby): Bromus; conditions: 4 g of a.i./ha
Galium = assay: Pre-emergence test (herbicidal action, Colby): Galium; conditions: 8 g of a.i./ha
Lolium = assay: Pre-emergence test (herbicidal action, Colby): Lolium; conditions: 8 g of a.i./ha
[11] = single active compound at 4 g of a.i./ha

CCS(=O)(=O)N(C(=O)C(C)(C)C)c1cc(-n2c(=O)cc(C(F)(F)F)n(C)c2=O)c(F)cc1C#N [I-3, N-[2-cyano-4-fluoro-5-(3-methyl-2,6-dioxo-4-trifluoromethyl-3,6-dihydro-1(2H)-pyrimidinyl)-phenyl]-N-(2,2-dimethyl-propanoyl)-1-ethanesulphonamide]
0: Galium (pre-emergence test) (weeds; Table 23, 4 g of a.i./ha) | Lolium (pre-emergence test) (weeds; Table 23, 4 g of a.i./ha) | Setaria (pre-emergence test) (weeds; Table 23, 4 g of a.i./ha) | Setaria (pre-emergence test) (weeds; Table 23, 8 g of a.i./ha) | Datura (pre-emergence test) (weeds; Table A20, 4 g of a.i./ha) | Lolium (pre-emergence test) (weeds; Table A20, 4 g of a.i./ha) | Datura (pre-emergence test) (weeds; Table A21, 4 g of a.i./ha) | Datura (pre-emergence test) (weeds; Table A22, 4 g of a.i./ha) | Cassia (pre-emergence test) (weeds; Table A24, 4 g of a.i./ha) | Lolium (pre-emergence test) (weeds; Table A24, 4 g of a.i./ha) | Bromus (pre-emergence test) (weeds; Table A25, 4 g of a.i./ha) | Echinochloa (pre-emergence test) (weeds; Table A26, 4 g of a.i./ha) | Setaria (pre-emergence test) (weeds; Table A26, 4 g of a.i./ha)
50: Eriochloa (pre-emergence test) (weeds; Table 23, 8 g of a.i./ha) | Cassia (pre-emergence test) (weeds; Table A22, 8 g of a.i./ha) | Cyperus (pre-emergence test) (weeds; Table A25, 8 g of a.i./ha)
60: Lolium (pre-emergence test) (weeds; Table A25, 8 g of a.i./ha)
95: Abutilon (pre-emergence test) (weeds; Table A27, 8 g of a.i./ha)
40%: Cassia (Cassia)
36%: Maize (21 days) (maize; Table A28, 90 g of a.i./ha) | Maize (21 days) (maize; Table A29, 90 g of a.i./ha) | Average damage (%) (maize; active compound 1 alone at 90 g of a.i./ha)
80: Chenopodium (pre-emergence test) (weeds; Table 23, 4 g of a.i./ha) | Chenopodium (pre-emergence test) (weeds; Table A20, 4 g of a.i./ha) | Chenopodium (pre-emergence test) (weeds; Table A21, 4 g of a.i./ha)
29%: Maize (21 days) (maize; Table A31, 90 g of a.i./ha)
80%: Stellaria (Stellaria) | Chenopodium (Chenopodium [10])
90: Polygonum (pre-emergence test) (weeds; Table A21, 8 g of a.i./ha)
20: Galium (pre-emergence test) (weeds; Table A20, 8 g of a.i./ha) | Polygonum (pre-emergence test) (weeds; Table A27, 8 g of a.i./ha)
30: Ipomoea (pre-emergence test) (weeds; Table 23, 8 g of a.i./ha) | Ipomoea (pre-emergence test) (weeds; Table A20, 4 g of a.i./ha) | Datura (pre-emergence test) (weeds; Table A20, 8 g of a.i./ha) | Ipomoea (pre-emergence test) (weeds; Table A20, 8 g of a.i./ha) | Ipomoea (pre-emergence test) (weeds; Table A21, 8 g of a.i./ha) | Echinochloa (pre-emergence test) (weeds; Table A24, 4 g of a.i./ha) | Veronica (pre-emergence test) (weeds; Table A24, 4 g of a.i./ha) | Echinochloa (pre-emergence test) (weeds; Table A24, 8 g of a.i./ha) | Setaria (pre-emergence test) (weeds; Table A24, 8 g of a.i./ha) | Digitaria (pre-emergence test) (weeds; Table A26, 4 g of a.i./ha) | Lolium (pre-emergence test) (weeds; Table A26, 4 g of a.i./ha) | Matricaria (pre-emergence test) (weeds; Table A26, 4 g of a.i./ha) | Cassia (pre-emergence test) (weeds; Table A26, 8 g of a.i./ha) | Echinochloa (pre-emergence test) (weeds; Table A26, 8 g of a.i./ha) | Lolium (pre-emergence test) (weeds; Table A26, 8 g of a.i./ha) | Setaria (pre-emergence test) (weeds; Table A26, 8 g of a.i./ha) | Cassia (pre-emergence test) (weeds; Table A27, 8 g of a.i./ha)
90%: Matricaria (Matricaria [7]; 8 g of a.i./ha) | Polygonum (Polygonum [8]; 8 g of a.i./ha) | Viola (Viola)
10%: Maize (7 days) (maize; Table A28, 60 g of a.i./ha)
0%: Veronica (Veronica; 4 g of a.i./ha) | damage, Veronica (Veronica; [11]) | Abutilon (Abutilon [2]) | Chenopodium (Chenopodium [3]) | Alopecurus (Alopecurus; 4 g of a.i./ha) | Alopecurus (Alopecurus; 8 g of a.i./ha) | Cyperus (Cyperus; 4 g of a.i./ha) | Digitaria (Digitaria; 4 g of a.i./ha) | Echinochloa (Echinochloa; 4 g of a.i./ha) | Echinochloa (Echinochloa; 8 g of a.i./ha) | Setaria (Setaria; 4 g of a.i./ha) | Setaria (Setaria; 8 g of a.i./ha) | Polygonum (Polygonum [8]; 4 g of a.i./ha) | Bromus (Bromus)
70%: Veronica (Veronica; 8 g of a.i./ha) | damage, Veronica (Veronica; single active compound at 8 g of a.i./ha) | Matricaria (Matricaria [4])
30% and 50%: Ipomoea (Ipomoea; 4 g of a.i./ha)
50%: pest or weed control at 8 g/ha (Abutilon [6]; 8 g of a.i./ha) | Matricaria (Matricaria [7]; 4 g of a.i./ha) | Eriochloa (Eriochloa; 8 g of a.i./ha)
40: Polygonum (pre-emergence test) (weeds; Table A21, 4 g of a.i./ha) | Polygonum (pre-emergence test) (weeds; Table A22, 4 g of a.i./ha) | Avena (pre-emergence test) (weeds; Table A25, 8 g of a.i./ha) | Avena (pre-emergence test) (weeds; Table A26, 4 g of a.i./ha)
17%: Maize (21 days) (maize; Table A28, 60 g of a.i./ha) | Average damage (%) (maize; active compound 1 alone at 60 g of a.i./ha)
20%: Maize (12 days) (maize; Table A28, 60 g of a.i./ha) | Maize (7 days) (maize; Table A28, 90 g of a.i./ha) | Maize (12 days) (maize; Table A29, 60 g of a.i./ha) | Maize (7 days) (maize; Table A31, 90 g of a.i./ha) | Digitaria (Digitaria; 8 g of a.i./ha) | pest or weed control at 4 g/ha (Abutilon [6]; 4 g of a.i./ha) | Lolium (Lolium)
70: Matricaria (pre-emergence test) (weeds; Table A26, 8 g of a.i./ha)
60%: Datura (Datura [1]; 8 g of a.i./ha) | Polygonum (Polygonum [5])
30%: Maize (12 days) (maize; Table A29, 90 g of a.i./ha) | Maize (12 days) (maize; Table A31, 90 g of a.i./ha) | Solanum (Solanum; 4 g of a.i./ha) | damage, Solanum (Solanum; [11]) | Datura (Datura [1]; 4 g of a.i./ha) | Cyperus (Cyperus; 8 g of a.i./ha) | Ipomoea (Ipomoea; 8 g of a.i./ha) | Datura (Datura [9]) | Eriochloa (Eriochloa; 4 g of a.i./ha) | Galium (Galium)
